Consider one compound from US20190374601A1, “METHODS FOR TREATING FUNGAL INFECTIONS” (priority 2017, published 2019).

Starred links: 1 amine or outer side, 2 acyl side, 3 side chain; linkers in the order of their positions; H or OH if unused. Positions of bridges follow the written chain, without caps; N, C: chain ends. Non-standard residues stand in square brackets, D forms with d. Residues, ends and D or L forms follow the SMILES beside them. *: point of attachment. Orn(4R-OH,5R-OCH2CH2NMe3+) = C[N+](C)(C)CCO[C@@H](N[*:3])[C@H](O)C[C@H](N[*:1])C(=O)[*:2]; pTerphenylCO(4''-OnC5H11) = CCCCCOc1ccc(-c2ccc(-c3ccc(C(=O)*)cc3)cc2)cc1; hTyr(3S-OH,4S-OH) = N[C@H](C(=O)O)[C@H](O)[C@@H](O)c1ccc(O)cc1; Pro(3S-OH,4S-Me) = C[C@H]1CN[C@H](C(=O)O)[C@H]1O; Hyp = O=C(O)[C@@H]1C[C@@H](O)CN1

This assay relates to T. mentagrophytes. Briefly: Hair root invasion test (mycological evaluation), T. mentagrophytes dermatophytosis guinea pig model, different doses once weekly, Example 2. It counts as in vivo. The note with it: evaluated study day 12, relative to vehicle control. The method, then: Procedures for animal care and use, preparation of standard inoculum, and infection of the animals were carried out following the same steps as described in Example 1.
Infected guinea pigs were randomized into the following (1)-(5) groups (10 per group) (see Table 4): (1) a vehicle control (water+mannitol); (2) terbinafine 10 mg/kg PO days 1 and 8, as a positive control; (3) CD101 10 mg/kg SQ days 1 and 8; (4) CD101 20 mg/kg SQ days 1 and 8; and (5) CD101 40 mg/kg SQ days 1 and 8.
Animals were treated with CD101 SQ or PO (for terbinafine) once a week on days 1 and 8.
Study Day 1: Infect the animals with T. mentagrophytes and begin treatments.
Study Day 8: Last treatment.
Study Day 12: Clinical evaluation of the four quadrants in the marked area is done. Hair samples were obtained from each quadrant. Hairs (10 per quadrant) were planted in Potato Dextrose Agar, and incubated for 48 h for mycological evaluation. Procedures for clinical and mycological evaluations are described below.
The compounds was administered SQ or PO (0.3 mL/kg […]).
Hair samples were removed with sterile forceps from four quadrants. Ten hair samples from each quadrant were inoculated onto the corresponding quadrant on the Potato Dextrose agar plate and incubated at 30° C. for 2 days. The fungal growth at the hair root was examined under a stereomicroscope. The effectiveness of a compound in reducing the number of mycologically positive hair sample per treated group was expressed as percentage relative to the untreated control group of animals using the following formula:
where T=Positive hair in the test group, K=Positive hair in the Untreated control.

In the case of `CCCCCOc1ccc(-c2ccc(-c3ccc(C(=O)N[C@H]4C[C@@H](O)[C@@H](OCC[N+](C)(C)C)NC(=O)[C@@H]5[C@@H](O)[C@@H](C)CN5C(=O)[C@H]([C@@H](C)O)NC(=O)[C@H]([C@H](O)[C@@H](O)c5ccc(O)cc5)NC(=O)[C@@H]5C[C@@H](O)CN5C(=O)[C@H]([C@@H](C)O)NC4=O)cc3)cc2)cc1` [CD101] ({pTerphenylCO(4''-OnC5H11)}-[Orn(4R-OH,5R-OCH2CH2NMe3+)]T[Hyp][hTyr(3S-OH,4S-OH)]T[Pro(3S-OH,4S-Me)]; lactam 1-C), the “Percent Efficacy Mycological” value by setting is: (10 mg/kg SQ days 1 and 8) 80.9%; (20 mg/kg SQ days 1 and 8) 82.9%; (40 mg/kg SQ days 1 and 8) 98.5%.
